Experimental findings from ChEMBL document CHEMBL1201862, “PubChem BioAssay data set” (2004) are described below.

Among the test systems are NCI-H522; COLO 205; HCC 2998; NCI-H23; SF-539; MDA-MB-435; OVCAR-3; SNB-19; T47D; Malme-3M; MDA-MB-231; OVCAR-4; HL-60; SF-268; HCT-116; ACHN; SF-295; EKVX; SK-MEL-28.
Holding throughout (assay): growth of human tumour cells (NCI), 48 h

Structures are written as SMILES.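 All cell lines were grown in 96-well plates and treated with compound for 48 hours. GI50 marks 50% less growth.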 Activity calls are given as the source filed them. Rule as the data show it: active = GI50 up to about 1.1 µM and inactive = higher.

As for `Cc1ccc([S+]([O-])(=Nc2ccccc2)C(C(C)C)C(C)(C)Cl)cc1` (stereo not given), the GI50 with NCI-H522 is 16 µM (inactive); in the assay on COLO 205, 0.91 µM (active); in the assay with HCC 2998, 21.6 µM (inactive); in the assay on NCI-H23 it was 9.91 µM (inactive); in the assay on SF-539, 15.9 µM (inactive); with MDA-MB-435, 10.7 µM (inactive). The GI50 with OVCAR-3 was 29.6 µM (inactive); in the assay with SNB-19, 8.67 µM (inactive); in the assay with T47D, 23.6 µM (inactive); in the assay on Malme-3M it was 27.9 µM (inactive); with MDA-MB-231 it was 17.2 µM (inactive); in the assay on OVCAR-4, 22.2 µM (inactive). The GI50 was 7.67 µM (inactive) in the assay on HL-60; 44.4 µM (inactive) in the assay with SF-268; 16.9 µM (inactive) in the assay on HCT-116; 31.6 µM (inactive) in the assay on ACHN; 16.3 µM (inactive) with SF-295; 11.4 µM (inactive) in the assay with EKVX.

For `CC1CC(Nc2ccc(Br)cc2)N(C(=O)c2ccc(Br)cc2)O1` (stereo not given), the GI50 in the assay on NCI-H522 is 8.07 µM (inactive); in the assay with COLO 205, 3.49 µM (inactive); with HCC 2998 it was > 10 µM (inactive); in the assay on NCI-H23 it was > 10 µM (inactive); in the assay with SF-539, 3.52 µM (inactive); in the assay on MDA-MB-435, 1.09 µM (active). Further, the GI50 with OVCAR-3 is > 10 µM (inactive); with SNB-19 it was > 10 µM (inactive); in the assay with T47D, 9.77 µM (inactive); in the assay on Malme-3M, 6.84 µM (inactive); in the assay with MDA-MB-231 it was > 10 µM (inactive); with OVCAR-4, > 10 µM (inactive). In addition, the GI50 in the assay with HL-60 is 3.76 µM (inactive); with SF-268, 1.25 µM (inactive); in the assay on HCT-116, 4.42 µM (inactive); with SK-MEL-28 it was > 10 µM (inactive); in the assay with ACHN, 0.678 µM (active); in the assay with SF-295 it was 2.42 µM (inactive). For the same molecule, the GI50 in the assay with EKVX was > 10 µM (inactive).

As for `CC[N+]1(C)CCC(O)(/C=C/c2ccc(OC)cc2)C(C(=O)/C=C/c2ccc(OC)cc2)C1` (stereo not given), the GI50 in the assay on NCI-H522 is 2.26 µM (inactive); in the assay with COLO 205 it was 2.58 µM (inactive); in the assay on HCC 2998, 20 µM (inactive); in the assay with NCI-H23, 16.2 µM (inactive); in the assay with SF-539 it was 5.35 µM (inactive); with MDA-MB-435, 12.5 µM (inactive). In addition, the GI50 in the assay on OVCAR-3 was 19.7 µM (inactive); with SNB-19, 17.3 µM (inactive); in the assay with T47D, 5.86 µM (inactive); in the assay on Malme-3M, 14.4 µM (inactive); in the assay with MDA-MB-231, 23.9 µM (inactive); in the assay with OVCAR-4, 24.7 µM (inactive). For the same molecule, the GI50 in the assay on HL-60 was 1.52 µM (inactive); with SF-268 it was 10.6 µM (inactive); with HCT-116, 12.7 µM (inactive); with SK-MEL-28 it was 15.3 µM (inactive); in the assay on ACHN, 8.36 µM (inactive); with SF-295, 18.6 µM (inactive). In addition, in the assay with EKVX, the GI50 is 28.6 µM (inactive).

`N#CCN1CCCN(CC#N)CCN(CC#N)CCCN(CC#N)CC1`: the GI50 in the assay on NCI-H522 was > 100 µM (inactive); with COLO 205 it was 11.4 µM (inactive); in the assay with HCC 2998, > 100 µM (inactive); in the assay on NCI-H23 it was > 100 µM (inactive); in the assay with SF-539, > 100 µM (inactive); with MDA-MB-435, > 100 µM (inactive). Moreover, the GI50 in the assay on OVCAR-3, in the assay on SNB-19, in the assay on T47D, in the assay on Malme-3M, in the assay with MDA-MB-231 and in the assay on OVCAR-4 was > 100 µM (inactive) in each case. In addition, the GI50 with HL-60 is 43.8 µM (inactive); in the assay on SF-268, > 100 µM (inactive); with HCT-116 it was > 100 µM (inactive); in the assay with SK-MEL-28, > 100 µM (inactive); in the assay with ACHN, > 100 µM (inactive); with SF-295 it was > 100 µM (inactive).

Regarding `CCN(CC)C1C(=O)NC1C#Cc1ccccc1` (stereo not given), the GI50 in the assay on NCI-H522 was 25 µM (inactive); in the assay on COLO 205, > 100 µM (inactive); in the assay with HCC 2998 it was > 100 µM (inactive); in the assay on NCI-H23, 71.4 µM (inactive); in the assay on SF-539, > 100 µM (inactive); in the assay with MDA-MB-435, 40.8 µM (inactive). The GI50 was > 100 µM (inactive) in the assay on OVCAR-3; > 100 µM (inactive) in the assay with SNB-19; 84.7 µM (inactive) with T47D; 98.4 µM (inactive) with Malme-3M; > 100 µM (inactive) in the assay with MDA-MB-231; > 100 µM (inactive) with OVCAR-4. Further, the GI50 in the assay with HL-60 is 36.6 µM (inactive); in the assay on SF-268, > 100 µM (inactive); in the assay on HCT-116, > 100 µM (inactive); in the assay on SK-MEL-28, > 100 µM (inactive); with ACHN, > 100 µM (inactive); in the assay with SF-295 it was > 100 µM (inactive). Further, the GI50 in the assay with EKVX is > 100 µM (inactive).

For the molecule `O=[N+]([O-])c1cccc2nc3ccccc3c(NCCC[N+]3([O-])CCCCC3)c12`, the GI50 is 0.134 µM (active) in the assay with NCI-H522; 0.143 µM (active) in the assay on COLO 205; 0.136 µM (active) in the assay on HCC 2998; 0.232 µM (active) with NCI-H23; 0.479 µM (active) in the assay on SF-539; 0.18 µM (active) in the assay on MDA-MB-435. Further, the GI50 in the assay on OVCAR-3 was 0.281 µM (active); with SNB-19, 0.638 µM (active); with T47D it was 0.41 µM (active); in the assay with Malme-3M, 0.168 µM (active); in the assay on MDA-MB-231 it was 0.351 µM (active); in the assay on OVCAR-4, 0.315 µM (active). Moreover, the GI50 with HL-60 was 0.745 µM (active); in the assay on SF-268, 0.323 µM (active); in the assay on HCT-116, 0.261 µM (active); in the assay on SK-MEL-28, 0.502 µM (active); in the assay on ACHN, 5.37 µM (inactive); in the assay with SF-295, 3.06 µM (inactive). In addition, the GI50 in the assay on EKVX was 0.438 µM (active).

As to `O=[N+]([O-])/C(C(Cl)=C(Cl)Cl)=C(/Cl)SCc1ccccc1`, the GI50 in the assay with NCI-H522 was 2.78 µM (inactive); with COLO 205 it was 1.74 µM (inactive); in the assay on HCC 2998, 24.8 µM (inactive); in the assay with NCI-H23 it was 6.03 µM (inactive); in the assay on SF-539, 6.62 µM (inactive); in the assay with MDA-MB-435 it was 2.35 µM (inactive). The GI50 in the assay with OVCAR-3 was 3.66 µM (inactive); in the assay with SNB-19, 22.5 µM (inactive); with T47D, 14.6 µM (inactive); in the assay on Malme-3M, 2.47 µM (inactive); with MDA-MB-231, 2.3 µM (inactive); in the assay with OVCAR-4, 2.85 µM (inactive). The GI50 in the assay with HL-60 is 0.229 µM (active); in the assay on SF-268, 12.4 µM (inactive); in the assay on HCT-116 it was 1.82 µM (inactive); in the assay with SK-MEL-28 it was 5.65 µM (inactive); in the assay with ACHN it was 2.89 µM (inactive); with SF-295, 34.4 µM (inactive). For the same molecule, the GI50 in the assay on EKVX is 20.4 µM (inactive).

Regarding `N#Cc1cc2c(n(C3OC(CO)C(O)C(O)C3O)c1=S)CCCCCC2` (stereo not given), the GI50 in the assay on NCI-H522, in the assay with COLO 205, in the assay on HCC 2998, with NCI-H23, in the assay on SF-539 and in the assay with MDA-MB-435 was > 100 µM (inactive) throughout. The GI50 with OVCAR-3 is > 100 µM (inactive); in the assay with SNB-19, > 100 µM (inactive); in the assay with T47D, 80.2 µM (inactive); with Malme-3M, > 100 µM (inactive); in the assay on MDA-MB-231, > 100 µM (inactive); in the assay with OVCAR-4, > 100 µM (inactive). In addition, the GI50 in the assay on HL-60, with SF-268, in the assay with HCT-116, in the assay with SK-MEL-28, in the assay with ACHN and in the assay with SF-295 was > 100 µM (inactive) each time.

As for `OC1(c2ccccc2)CSc2ncnn21` (stereo not given), the GI50 in the assay on NCI-H522, with COLO 205, in the assay on HCC 2998, in the assay with NCI-H23, in the assay on SF-539 and in the assay with MDA-MB-435 was > 100 µM (inactive) in each case. The GI50 in the assay on OVCAR-3, in the assay on SNB-19, in the assay on T47D, in the assay on Malme-3M, with MDA-MB-231 and in the assay with OVCAR-4 was > 100 µM (inactive) in each case. Also, the GI50 in the assay with HL-60, in the assay on SF-268, with HCT-116, in the assay with ACHN, in the assay with SF-295 and with EKVX was > 100 µM (inactive) each time.

In the case of `c1ccc([P+](c2ccccc2)(c2ccccc2)C2c3ccccc3-c3ccccc32)cc1`, the GI50 in the assay with NCI-H522 is 2.19 µM (inactive); in the assay on COLO 205 it was 1.33 µM (inactive); in the assay with HCC 2998, 2.6 µM (inactive); with NCI-H23, 1.9 µM (inactive); with SF-539, 2.75 µM (inactive); in the assay on MDA-MB-435, 0.655 µM (active). The GI50 with OVCAR-3 is 1.87 µM (inactive); in the assay with SNB-19, 2.79 µM (inactive); with T47D, 2.71 µM (inactive); with Malme-3M, 2.35 µM (inactive); in the assay on MDA-MB-231, 2.52 µM (inactive); in the assay with HL-60, 1.16 µM (inactive). Besides, the GI50 is 2.77 µM (inactive) in the assay on SF-268; 0.473 µM (active) in the assay with HCT-116; 3.01 µM (inactive) in the assay with SK-MEL-28; 2.35 µM (inactive) in the assay on ACHN; 1.75 µM (inactive) in the assay with SF-295.

As to `CC(C)[Si](OC1=C(c2ccccc2)C(NC(=O)/C=C/c2ccc([N+](=O)[O-])cc2)CCC1)(C(C)C)C(C)C` (stereo not given), the GI50 in the assay on NCI-H522, in the assay on COLO 205, with HCC 2998, in the assay with NCI-H23, in the assay on SF-539 and in the assay with MDA-MB-435 was > 100 µM (inactive) throughout. In addition, the GI50 with OVCAR-3, in the assay on SNB-19, in the assay with T47D, with Malme-3M, with MDA-MB-231 and in the assay with HL-60 was > 100 µM (inactive) throughout. For the same molecule, the GI50 in the assay on SF-268, with HCT-116, in the assay on SF-295 and with EKVX was > 100 µM (inactive) each time.
